In paper PMC8429728, “TNK1 is a ubiquitin-binding and 14-3-3-regulated kinase that can be targeted to block tumor growth” (Nature Communications, 2021):
Like-named read-outs stand apart in the source and are kept apart here.

Tests used:
Test in all cases: biochemical
Set-up in all cases: Reaction Biology 371-kinase panel at Km ATP, per cent enzyme activity relative to DMSO, single dose in duplicate
CDK3/cyclin E = CDK3/cyclin E (Homo sapiens, UniProt Q00526); conditions: duplicate measurements, Km ATP
Method in brief: (§1)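 Activity of each kinase, normalised to DMSO-treated controls, served as the read-out. The inhibitor was tested at 300 nM against 371 kinases in vitro. Curves fitted by variable-slope sigmoidal dose-response, constrained to a bottom of 0, gave IC50.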

CK1epsilon = target: T1, CK1epsilon (Homo sapiens, UniProt P49674); conditions: duplicate measurements, Km ATP
T1 construct: gene CSNK1E
Method in brief: as §1

COT1/MAP3K8 = COT1/MAP3K8 (Homo sapiens, UniProt P41279); conditions: duplicate measurements, Km ATP
Method in brief: as §1

CSK = CSK (Homo sapiens, UniProt P41240); conditions: duplicate measurements, Km ATP
Method in brief: as §1

EPHA2 = EPHA2 (Homo sapiens, UniProt P29317); conditions: duplicate measurements, Km ATP
Chain of EPHA2 (P29317 whole entry): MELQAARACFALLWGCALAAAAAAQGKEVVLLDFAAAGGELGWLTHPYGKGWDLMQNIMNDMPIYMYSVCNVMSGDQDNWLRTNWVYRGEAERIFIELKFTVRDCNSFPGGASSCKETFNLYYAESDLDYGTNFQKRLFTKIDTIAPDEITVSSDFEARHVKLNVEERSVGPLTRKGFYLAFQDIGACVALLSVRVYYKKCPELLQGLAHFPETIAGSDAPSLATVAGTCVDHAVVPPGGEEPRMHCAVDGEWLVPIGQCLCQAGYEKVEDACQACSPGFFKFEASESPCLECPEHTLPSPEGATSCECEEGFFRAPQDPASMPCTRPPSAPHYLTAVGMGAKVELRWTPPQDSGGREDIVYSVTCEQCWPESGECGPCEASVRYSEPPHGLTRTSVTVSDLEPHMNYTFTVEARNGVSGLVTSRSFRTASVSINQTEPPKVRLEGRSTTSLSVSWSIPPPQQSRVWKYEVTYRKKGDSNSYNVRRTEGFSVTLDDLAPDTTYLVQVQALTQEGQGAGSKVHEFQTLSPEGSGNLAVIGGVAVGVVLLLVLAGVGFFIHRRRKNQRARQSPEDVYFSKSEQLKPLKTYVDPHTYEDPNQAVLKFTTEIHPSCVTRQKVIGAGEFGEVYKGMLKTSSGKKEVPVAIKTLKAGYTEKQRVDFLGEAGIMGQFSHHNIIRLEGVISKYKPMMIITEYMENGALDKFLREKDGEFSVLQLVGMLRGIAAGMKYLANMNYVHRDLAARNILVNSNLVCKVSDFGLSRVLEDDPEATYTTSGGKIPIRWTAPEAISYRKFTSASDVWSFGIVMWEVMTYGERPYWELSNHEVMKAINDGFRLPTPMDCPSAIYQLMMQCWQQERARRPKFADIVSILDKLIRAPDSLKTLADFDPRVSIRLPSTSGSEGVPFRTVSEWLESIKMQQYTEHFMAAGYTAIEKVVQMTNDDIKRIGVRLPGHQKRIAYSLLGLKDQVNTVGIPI
Method in brief: as §1

FGFR4 = FGFR4 (Homo sapiens, UniProt P22455); conditions: duplicate measurements, Km ATP
Chain of FGFR4 (P22455 whole entry): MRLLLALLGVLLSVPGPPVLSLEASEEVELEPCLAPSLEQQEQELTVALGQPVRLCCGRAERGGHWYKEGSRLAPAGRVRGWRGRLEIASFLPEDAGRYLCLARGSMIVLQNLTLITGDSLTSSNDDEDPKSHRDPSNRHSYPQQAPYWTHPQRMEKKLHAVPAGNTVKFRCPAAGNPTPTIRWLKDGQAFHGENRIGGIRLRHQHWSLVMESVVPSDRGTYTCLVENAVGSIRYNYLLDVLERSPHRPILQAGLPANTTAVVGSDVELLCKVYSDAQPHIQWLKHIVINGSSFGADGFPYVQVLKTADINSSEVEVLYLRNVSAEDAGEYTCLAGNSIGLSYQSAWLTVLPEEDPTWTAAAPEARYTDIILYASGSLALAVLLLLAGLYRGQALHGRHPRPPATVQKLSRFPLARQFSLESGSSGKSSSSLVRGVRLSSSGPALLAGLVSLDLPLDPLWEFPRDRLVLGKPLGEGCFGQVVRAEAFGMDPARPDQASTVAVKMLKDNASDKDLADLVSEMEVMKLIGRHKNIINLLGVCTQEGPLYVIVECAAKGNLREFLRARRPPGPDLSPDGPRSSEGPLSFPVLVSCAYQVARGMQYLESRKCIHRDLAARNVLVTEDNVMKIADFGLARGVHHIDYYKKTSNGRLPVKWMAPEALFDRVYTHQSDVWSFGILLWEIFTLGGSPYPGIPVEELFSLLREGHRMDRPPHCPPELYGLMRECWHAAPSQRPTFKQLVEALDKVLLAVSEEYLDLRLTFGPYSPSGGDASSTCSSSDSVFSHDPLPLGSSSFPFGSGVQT
Method in brief: as §1

FLT1/VEGFR1 = FLT1/VEGFR1 (Homo sapiens, UniProt P17948); conditions: duplicate measurements, Km ATP
Method in brief: as §1

GCK/MAP4K2 = GCK/MAP4K2 (Homo sapiens, UniProt Q12851); conditions: duplicate measurements, Km ATP
Method in brief: as §1

GRK7 = GRK7 (Homo sapiens, UniProt Q8WTQ7); conditions: duplicate measurements, Km ATP
Chain of GRK7 (Q8WTQ7 whole entry): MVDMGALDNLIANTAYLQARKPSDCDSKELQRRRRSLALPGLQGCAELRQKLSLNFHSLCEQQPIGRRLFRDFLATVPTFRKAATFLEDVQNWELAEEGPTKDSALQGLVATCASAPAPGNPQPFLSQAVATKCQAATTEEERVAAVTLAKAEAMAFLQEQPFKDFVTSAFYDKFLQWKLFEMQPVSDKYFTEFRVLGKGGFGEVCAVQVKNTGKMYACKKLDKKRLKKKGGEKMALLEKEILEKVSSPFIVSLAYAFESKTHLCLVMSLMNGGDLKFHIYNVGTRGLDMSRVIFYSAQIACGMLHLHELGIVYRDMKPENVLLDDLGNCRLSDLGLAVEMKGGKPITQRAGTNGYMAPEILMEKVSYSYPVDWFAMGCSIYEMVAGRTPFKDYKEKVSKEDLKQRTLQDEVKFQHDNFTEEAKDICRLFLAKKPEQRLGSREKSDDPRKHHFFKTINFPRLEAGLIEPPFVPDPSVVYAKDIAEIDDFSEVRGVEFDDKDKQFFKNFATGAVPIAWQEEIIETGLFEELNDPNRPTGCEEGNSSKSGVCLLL
Method in brief: as §1

IKKb/IKBKB = IKKb/IKBKB (Homo sapiens, UniProt O14920); conditions: duplicate measurements, Km ATP
Chain of IKKb/IKBKB (O14920 whole entry): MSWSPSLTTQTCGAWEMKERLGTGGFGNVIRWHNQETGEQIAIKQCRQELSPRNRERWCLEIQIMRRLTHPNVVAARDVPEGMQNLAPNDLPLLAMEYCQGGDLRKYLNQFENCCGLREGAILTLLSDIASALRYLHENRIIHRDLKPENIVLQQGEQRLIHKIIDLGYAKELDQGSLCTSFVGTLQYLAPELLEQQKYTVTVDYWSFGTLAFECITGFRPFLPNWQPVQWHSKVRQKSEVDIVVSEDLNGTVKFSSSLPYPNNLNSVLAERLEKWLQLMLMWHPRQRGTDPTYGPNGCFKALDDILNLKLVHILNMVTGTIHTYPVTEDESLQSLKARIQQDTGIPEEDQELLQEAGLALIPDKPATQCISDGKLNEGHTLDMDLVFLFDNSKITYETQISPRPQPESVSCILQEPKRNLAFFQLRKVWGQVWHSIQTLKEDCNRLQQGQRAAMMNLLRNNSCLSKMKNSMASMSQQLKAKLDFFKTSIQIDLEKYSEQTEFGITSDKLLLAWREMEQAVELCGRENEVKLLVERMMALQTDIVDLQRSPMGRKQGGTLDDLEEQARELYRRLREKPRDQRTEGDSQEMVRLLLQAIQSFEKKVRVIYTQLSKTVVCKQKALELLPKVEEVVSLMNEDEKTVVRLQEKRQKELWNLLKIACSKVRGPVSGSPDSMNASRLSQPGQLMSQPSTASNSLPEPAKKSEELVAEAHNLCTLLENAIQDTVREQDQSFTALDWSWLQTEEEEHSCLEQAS
Method in brief: as §1

JAK1 = JAK1 (Homo sapiens, UniProt P23458); conditions: duplicate measurements, Km ATP
Method in brief: as §1

JAK3 = JAK3 (Homo sapiens, UniProt P52333); conditions: duplicate measurements, Km ATP
Chain of JAK3 (P52333 whole entry): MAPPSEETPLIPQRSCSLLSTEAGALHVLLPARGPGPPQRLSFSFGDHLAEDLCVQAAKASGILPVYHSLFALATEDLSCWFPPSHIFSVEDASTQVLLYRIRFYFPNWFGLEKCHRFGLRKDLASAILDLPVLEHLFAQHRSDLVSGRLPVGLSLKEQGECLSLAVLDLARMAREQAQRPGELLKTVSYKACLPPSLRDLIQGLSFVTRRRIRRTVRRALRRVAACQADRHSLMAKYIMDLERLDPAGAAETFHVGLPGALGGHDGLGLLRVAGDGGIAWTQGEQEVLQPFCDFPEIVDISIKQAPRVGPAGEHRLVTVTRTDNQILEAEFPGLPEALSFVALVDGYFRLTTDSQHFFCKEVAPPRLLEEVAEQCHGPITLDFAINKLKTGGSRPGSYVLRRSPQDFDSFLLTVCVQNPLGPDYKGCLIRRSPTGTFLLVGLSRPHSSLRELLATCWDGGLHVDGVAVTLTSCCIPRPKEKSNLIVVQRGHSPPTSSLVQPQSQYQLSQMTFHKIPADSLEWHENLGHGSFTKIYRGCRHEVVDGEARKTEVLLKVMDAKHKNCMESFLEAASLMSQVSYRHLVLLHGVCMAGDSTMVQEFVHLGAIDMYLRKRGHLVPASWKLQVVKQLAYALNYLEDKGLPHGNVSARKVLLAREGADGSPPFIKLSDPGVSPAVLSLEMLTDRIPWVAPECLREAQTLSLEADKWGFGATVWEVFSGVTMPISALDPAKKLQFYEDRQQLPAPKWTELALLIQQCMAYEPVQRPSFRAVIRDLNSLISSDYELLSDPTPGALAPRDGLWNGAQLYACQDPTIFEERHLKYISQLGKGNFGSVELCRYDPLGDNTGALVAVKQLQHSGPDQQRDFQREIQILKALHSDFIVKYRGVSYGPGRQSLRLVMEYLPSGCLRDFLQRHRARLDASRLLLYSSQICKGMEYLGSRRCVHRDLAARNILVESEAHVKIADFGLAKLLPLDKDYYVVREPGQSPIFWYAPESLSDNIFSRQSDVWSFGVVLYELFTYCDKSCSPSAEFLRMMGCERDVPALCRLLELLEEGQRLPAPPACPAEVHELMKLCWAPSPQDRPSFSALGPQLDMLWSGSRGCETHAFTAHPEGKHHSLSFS
Method in brief: as §1

MAPKAPK3 = MAPKAPK3 (Homo sapiens, UniProt Q16644); conditions: duplicate measurements, Km ATP
Method in brief: as §1

MEK3 = target: T2, MEK3 (Homo sapiens, UniProt P46734); conditions: duplicate measurements, Km ATP
T2 construct: gene MAP2K3
Method in brief: as §1

MST3/STK24 = MST3/STK24 (Homo sapiens, UniProt Q9Y6E0); conditions: duplicate measurements, Km ATP
Method in brief: as §1

NEK4 = NEK4 (Homo sapiens, UniProt P51957); conditions: duplicate measurements, Km ATP; read-out: % Enzyme Activity (relative to DMSO controls) / TP-0005801 (0.3µM) / Data 1
Method in brief: as §1

PKG2/PRKG2 = PKG2/PRKG2 (Homo sapiens, UniProt Q13237); conditions: duplicate measurements, Km ATP; read-out: % Enzyme Activity (relative to DMSO controls) / TP-0005801 (0.3µM) / Data 1
Method in brief: as §1

RSK4 = target: T3, RSK4 (Homo sapiens, UniProt Q9UK32); conditions: duplicate measurements, Km ATP
T3 construct: gene RPS6KA6
T3 sequence (Q9UK32 whole entry): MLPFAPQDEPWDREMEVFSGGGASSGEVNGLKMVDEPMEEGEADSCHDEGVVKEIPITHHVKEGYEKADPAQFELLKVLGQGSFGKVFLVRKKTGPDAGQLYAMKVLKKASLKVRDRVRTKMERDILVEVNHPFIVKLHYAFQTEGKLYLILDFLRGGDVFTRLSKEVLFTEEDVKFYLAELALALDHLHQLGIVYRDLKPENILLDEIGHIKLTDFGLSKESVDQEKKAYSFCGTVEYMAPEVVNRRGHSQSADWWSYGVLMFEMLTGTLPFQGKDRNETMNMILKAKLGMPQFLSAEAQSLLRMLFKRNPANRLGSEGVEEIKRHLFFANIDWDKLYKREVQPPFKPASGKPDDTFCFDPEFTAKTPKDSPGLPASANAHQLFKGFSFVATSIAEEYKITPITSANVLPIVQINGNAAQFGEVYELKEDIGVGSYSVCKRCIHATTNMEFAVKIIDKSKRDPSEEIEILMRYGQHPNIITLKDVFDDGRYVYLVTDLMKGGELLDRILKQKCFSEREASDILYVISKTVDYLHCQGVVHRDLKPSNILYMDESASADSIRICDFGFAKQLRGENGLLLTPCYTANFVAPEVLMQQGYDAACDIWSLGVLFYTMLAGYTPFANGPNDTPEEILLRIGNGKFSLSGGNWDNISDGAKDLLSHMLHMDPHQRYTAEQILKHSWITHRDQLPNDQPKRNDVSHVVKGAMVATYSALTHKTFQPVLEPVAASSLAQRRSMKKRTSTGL
Method in brief: as §1

TYK1/LTK = TYK1/LTK (Homo sapiens, UniProt P29376); conditions: duplicate measurements, Km ATP; read-out: % Enzyme Activity (relative to DMSO controls) / TP-0005801 (0.3µM) / Data 1
Method in brief: as §1

WNK2 = WNK2 (Homo sapiens, UniProt Q9Y3S1); conditions: duplicate measurements, Km ATP
Method in brief: as §1

[1] = read-out: % Enzyme Activity (relative to DMSO controls) / TP-0005801 (0.3µM) / Data 1
[2] = read-out: % Enzyme Activity (relative to DMSO controls) / TP-0005801 (0.3µM) / Data 2

## COc1cc(N2CCN(C)CC2)c(C)cc1Nc1ncc(Br)c(Nc2cccnc2N(C)C)n1 [TP-5801]
CDK3/cyclin E; [1]
  remaining activity at 0.3 µM: 98%
CDK3/cyclin E; [2]
  remaining activity at 0.3 µM: 97.7%
CK1epsilon; [1]
  remaining activity at 0.3 µM: 96.5%
CK1epsilon; [2]
  remaining activity at 0.3 µM: 94.7%
COT1/MAP3K8; [1]
  remaining activity at 0.3 µM: 100%
COT1/MAP3K8; [2]
  remaining activity at 0.3 µM: 97.5%
CSK; [1]
  remaining activity at 0.3 µM: 92.6%
CSK; [2]
  remaining activity at 0.3 µM: 89.8%
EPHA2; [1]
  remaining activity at 0.3 µM: 98.3%
EPHA2; [2]
  remaining activity at 0.3 µM: 95.9%
FGFR4; [1]
  remaining activity at 0.3 µM: 79.9%
FGFR4; [2]
  remaining activity at 0.3 µM: 77.6%
FLT1/VEGFR1; [1]
  remaining activity at 0.3 µM: 96.8%
FLT1/VEGFR1; [2]
  remaining activity at 0.3 µM: 96.2%
GCK/MAP4K2; [1]
  remaining activity at 0.3 µM: 76.1%
GCK/MAP4K2; [2]
  remaining activity at 0.3 µM: 73.9%
GRK7; [1]
  remaining activity at 0.3 µM: 105%
GRK7; [2]
  remaining activity at 0.3 µM: 97.5%
IKKb/IKBKB; [1]
  remaining activity at 0.3 µM: 104%
IKKb/IKBKB; [2]
  remaining activity at 0.3 µM: 102%
JAK1; [1]
  remaining activity at 0.3 µM: 104%
JAK1; [2]
  remaining activity at 0.3 µM: 102%
JAK3; [1]
  remaining activity at 0.3 µM: 29.3%
JAK3; [2]
  remaining activity at 0.3 µM: 28.7%
MAPKAPK3; [1]
  remaining activity at 0.3 µM: 104%
MAPKAPK3; [2]
  remaining activity at 0.3 µM: 103%
MEK3; [1]
  remaining activity at 0.3 µM: 174%
MEK3; [2]
  remaining activity at 0.3 µM: 173%
MST3/STK24; [1]
  remaining activity at 0.3 µM: 106%
MST3/STK24; [2]
  remaining activity at 0.3 µM: 103%
NEK4
  remaining activity at 0.3 µM: 122%
PKG2/PRKG2
  remaining activity at 0.3 µM: 111%
RSK4; [1]
  remaining activity at 0.3 µM: 79.4%
RSK4; [2]
  remaining activity at 0.3 µM: 77.9%
TYK1/LTK
  remaining activity at 0.3 µM: 16.4%
WNK2; [1]
  remaining activity at 0.3 µM: 96.6%
WNK2; [2]
  remaining activity at 0.3 µM: 93.9%
